The values that follow are results of earlier work, collected in patent US7881871B2, “Method for designing surfaces” (Bio-Layer Pty Limited, priority 2003, dated 2011).

In data set [1] the test system is antibodies (Fc fragment).
Data set [2] concerns monoclonal antibodies (IgG subclasses).

Where two headings read alike, the source gives them in different places.

For the substance “Protein A: 42,000 dalton cell-wall-associated protein of S. Aureus with IgG binding activity”, the affinity for antibodies result in data set [1] (horse, cow and mouse antibodies) is given as “moderate affinity”; in data set [1] (human, pig, rabbit and guinea pig antibodies) it was “high affinity”; in data set [1] (sheep, goat, chicken, hamster and rat antibodies), “low or no affinity”. Also, the “affinity for monoclonal antibodies” value in data set [2] (human IgG1, IgG2, IgG3, mouse IgG2a and IgG2b) is “high affinity”; in data set [2] (human IgG1, rat IgG1, IgG2a and IgG2b), “no affinity”; in data set [2] (mouse IgG1 and IgG3, rat IgG2c) it was “moderate or low affinity”.

In the case of “Protein G: 30,000 to 35,000 dalton protein isolated from the cell wall of beta-hemolytic Streptococci”, the affinity for antibodies entry in data set [1] (chicken antibodies) was “low affinity”; in data set [1] (human, horse, cow, pig and rabbit antibodies), “high affinity”; in data set [1] (sheep, goat, hamster, guinea pig, rat and mouse antibodies), “moderate affinity”. The “affinity for monoclonal antibodies” value in data set [2] (human IgG1, IgG2, IgG3 and IgG4, mouse IgG1, IgG2a, IgG2b and IgG3, rat IgG2a) is given as “high affinity”; in data set [2] (rat IgG1, IgG2b and IgG2c) it was “moderate or low affinity”.
